What is called Kd is the constant that tells how readily two partners part at equilibrium. Higher therefore signals lower affinity.

Read-outs that look alike come from different tables or passages of the source.

Data set [1] deals with CYP3A4 (Homo sapiens, UniProt P08684). Nature of the data set: biochemical. How it is done:
Histidine tagged CYP3A4 enzyme was expressed in E. coli and purified on Ni-NTA agarose column as described previously. Briefly, CYP3A4 cDNA was introduced into TOPP3 strain of E. coli by transformation and the cells were plated on LB ampicillin plate with tetracycline. The next day, a viable and isolated colony was grown in TB media for 48 h to induce CYP3A4. The cultures were harvested by centrifugation and CYP3A4 was extracted from the membrane using detergent followed by ultracentrifugation. The supernatant was loaded on a Ni-NTA agarose column for further purification. The purified enzyme was dialyzed and final preparation was stored at -80^οC until use.
The spectral change was recorded by using a UV/Vis double beam spectrophotometer (6800 UV/VIS JENWAY spectrophotometer) as described earlier. Briefly, 0.5 μM of purified CYP3A4 enzyme was incubated with 2 ml of 0.1 M HEPES buffer for 3 min and distributed equally between the sample and reference cuvettes. Depending upon the solvent used to solubilize methamphetamine or PIs, equal quantities of either methanol or water was added into the reference cuvette with final volume of the external solvent <1%. Increasing concentrations of methamphetamine was added to the sample cuvette while the same volume of solvent was added into the reference cuvette and the spectral change was recorded. For experiments involving PIs, different concentrations of PIs were added into the sample cuvette and the spectral change was recorded with a 2 min interval between each addition. […] Type I ligands displace the heme water ligand, thus shifting the iron spin equilibrium towards the high-spin form resulting in a spectrum, which is characterized by an increase in the absorbance at 390 nm (high spin) and a decrease at 420 nm (low spin). Type II ligands containing nitrogen heterocycles replace the water ligand to stabilize the low-spin form resulting in a spectrum that is characterized by an increase in the spectrum at ~430 nm and a decrease at ~400 nm. The effect of methamphetamine on the spectral binding of PIs was determined by incubating the CYP3A4 enzyme with 100 μM of methamphetamine and titrating with increasing concentrations of PIs.
The KD and δAmax were determined by fitting the curve (absorbance vs. concentration) with hyperbolic equation using non-regression analysis in sigma plot 11 (Systat Software, San Jose, CA). The p-values were determined using One way ANOVA with Dunnet’s post-hoc test and values <0.05 were considered statistically significant.

Data set [2] concerns CYP3A4. As to conditions: HLMs; for decrease in formation of hydroxy ritonavir: substrate ritonavir 2 μM. The protocol:
Briefly, the metabolite formations were assessed in incubation mixtures (0.5 mL) containing 100 mM phosphate buffer (pH 7.4), HLMs (0.1 mg/mL), and 5 mM Mgcl2 [13, 14]. The incubation mixtures were pre-incubated with six different concentrations of Meth ranging from 3 μM to 1000 μM for 10 min, followed by the addition of 5 μl stock solution of PI. The entire mixture was incubated in water bath at 37°C for 15 min. […] Later, the reactions were initiated upon the addition of 100 μl of 25 mM NADPH (final concentration of 5 mM) solution to each of the tube and incubated in water bath at 37°C for 60 min. […] Then, the tubes were vortexed and centrifuged at 500 g for 10 min and supernatant was transferred into vials for analysis by LC-MS/MS.
Standard curves for each analyte with IS were generated in blank HLMs incubation mixture as described above. The carry over test was performed by injecting an extra blank following the injection of upper limit of quantitation (ULOQ) of the standard curve with an IS. The LC-MS/MS methods were developed for each analyte along with its metabolite using 3200 QTRAP LC-MS/MS system, AB Sciex. […] (Fig 1, Table 1). A source temperature of 500°C, ion spray voltage of 5500 V, curtain gas of 20, GS 1 & 2 of 50, and dwell time of 200 msec were used for the determination of all analytes. The MRM method parameters such as declustering potential (DP), entrance potential (EP), collision energy (CE), and collision cell exit potential (CXP), were listed in the Table 1 along with the MRM transitions.
All the analytes were separated on reverse phase XTerra ® MS C18 column (4.6X50mm, i.d, 3.5 μm) using a Shimadzu LC-20AD HPLC system (CA, USA). A binary gradient elution method comprising of mobile phases (acetonitrile with 0.1% formic acid and water with 0.1% formic acid) with a flow rate of 0.5 mL/min was employed. […] Data acquisition and analyses were performed using the Analyst 1.4.2 software package (Applied Biosystems, Foster City, CA, USA).

CYP3A4 (Homo sapiens, UniProt P08684), sequence (P08684 whole entry): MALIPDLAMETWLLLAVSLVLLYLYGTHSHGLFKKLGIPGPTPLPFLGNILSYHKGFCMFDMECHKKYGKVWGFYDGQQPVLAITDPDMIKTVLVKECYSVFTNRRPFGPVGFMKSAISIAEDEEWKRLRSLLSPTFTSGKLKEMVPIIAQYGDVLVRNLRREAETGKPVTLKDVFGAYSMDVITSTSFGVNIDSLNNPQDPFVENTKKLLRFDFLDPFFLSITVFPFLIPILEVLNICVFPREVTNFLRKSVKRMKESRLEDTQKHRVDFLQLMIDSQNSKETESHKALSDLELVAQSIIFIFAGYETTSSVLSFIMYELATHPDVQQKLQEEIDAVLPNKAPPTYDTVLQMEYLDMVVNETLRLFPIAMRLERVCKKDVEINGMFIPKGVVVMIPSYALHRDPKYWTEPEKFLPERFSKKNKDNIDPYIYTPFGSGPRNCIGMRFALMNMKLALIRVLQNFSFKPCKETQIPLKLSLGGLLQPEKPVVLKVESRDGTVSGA

At CYP3A4 [1] (KD, methamphetamine alone titrated with CYP3A4, hyperbolic fit), `CN[C@@H](C)Cc1ccccc1` [methamphetamine] displayed a Kd of 204 ± 18 µM. Moreover, the “spectral transition (low to high spin) with CYP3A4” value at CYP3A4 [1] (at saturating concentration of methamphetamine) is “approximately 20%”. For the same compound, the “type of spectral change upon binding to CYP3A4” value on CYP3A4 [1] (increase in absorbance at 390 nm, decrease at 418 nm) was “type I”. On CYP3A4 [1] (methamphetamine alone titrated with CYP3A4, hyperbolic fit), this compound had a δAmax of 0.016±0.001. Also, the “decrease in formation of hydroxy ritonavir” value in the data set with CYP3A4 [2] (100 μM methamphetamine) came to 23.3 ± 3.8%; in the data set with CYP3A4 [2] (1000 μM methamphetamine), 46.2 ± 3.3%. Besides, the “effect on metabolism of lopinavir (lopinavir M1 formation)” value in the data set on CYP3A4 [2] (methamphetamine 3 μM to 1000 μM, substrate lopinavir 10 μM) is “did not affect”. Moreover, the “effect on metabolism of nelfinavir M8 (decrease in substrate concentration)” value in the data set with CYP3A4 [2] (methamphetamine 3 μM to 1000 μM, substrate nelfinavir M-8 1 μM) was “did not affect”.

As to `Cc1c(O)cccc1C(=O)N[C@@H](CSc1ccccc1)[C@H](O)CN1C[C@H]2CCCC[C@H]2C[C@H]1C(=O)NC(C)(C)C` [Nelfinavir], the δAmax on CYP3A4 [1] (human) is 0.0068 ± 0.0001.

Take `CCC[C@@]1(CCc2ccccc2)CC(O)=C([C@H](CC)c2cccc(NS(=O)(=O)c3ccc(C(F)(F)F)cn3)c2)C(=O)O1` [Tipranavir]: at CYP3A4 [1] (human), the δAmax was found to be 0.0050 ± 0.0005.

`COC(=O)N[C@H](C(=O)N[C@@H](Cc1ccccc1)[C@@H](O)CN(Cc1ccc(-c2ccccn2)cc1)NC(=O)[C@@H](NC(=O)OC)C(C)(C)C)C(C)(C)C` [Atazanavir]: the δAmax on CYP3A4 [1] (human) turned out to be 0.0045 ± 0.0002.

These data come from article PMC4704828, “Effect of Methamphetamine on Spectral Binding, Ligand Docking and Metabolism of Anti-HIV Drugs with CYP3A4” (PLoS ONE, 2016).
